Results reported in US9938268B2, “C-ring modified tricyclic benzonaphthiridinone protein kinase inhibitors and use thereof” (Merck Patent GmbH, priority 2008, dated 2018).

What follows are compounds tested against Aurora A (Homo sapiens (Human), UniProt O14965) (assay: Aurora A kinase inhibition (IC50)). Details: not given.
Type: biochemical

Sequence of Aurora A (O14965 whole entry): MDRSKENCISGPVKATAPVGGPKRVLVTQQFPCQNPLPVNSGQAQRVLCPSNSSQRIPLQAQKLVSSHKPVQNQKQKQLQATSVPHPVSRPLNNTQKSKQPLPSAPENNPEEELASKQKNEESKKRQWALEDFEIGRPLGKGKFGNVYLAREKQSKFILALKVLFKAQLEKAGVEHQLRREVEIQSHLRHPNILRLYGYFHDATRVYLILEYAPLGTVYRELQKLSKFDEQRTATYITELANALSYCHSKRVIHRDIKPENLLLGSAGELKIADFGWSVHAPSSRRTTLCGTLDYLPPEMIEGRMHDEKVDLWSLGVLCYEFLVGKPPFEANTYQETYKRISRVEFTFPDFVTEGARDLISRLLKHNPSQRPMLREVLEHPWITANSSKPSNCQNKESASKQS

Structure (SMILES) | IC50 [nM]
O=C(Nc1ccc(Nc2ccnc3[nH]c(=O)c4c(c23)CCCC4)cc1)c1ccccc1 [Compound 5, N-[4-(6-Oxo-5,6,7,8,9,10-hexahydrobenzo[c][1,8]naphthyridin-1-ylamino)-phenyl]-benzamide] | 11 to 100
O=C(Nc1ccc(Nc2ccnc3[nH]c(=O)c4c(c23)CCCC4)cc1)c1ccc(F)cc1C(F)(F)F [Compound 6, 4-Fluoro-N-[4-(6-oxo-5,6,7,8,9,10-hexahydrobenzo[c][1,8]naphthyridin-1-ylamino)-phenyl]-2-trifluoromethyl-1-benzamide] | 1 to 10
O=C(Nc1ccc(Nc2ccnc3[nH]c(=O)c4c(c23)CCCC4)cc1)c1cccc(F)c1F [Compound 7, 2,3-Difluoro-N-[4-(6-oxo-5,6,7,8,9,10-hexahydrobenzo[c][1,8]naphthyridin-1-ylamino)-phenyl]-1-benzamide] | 1 to 10
O=C(Nc1ccc(Nc2ccnc3[nH]c(=O)c4c(c23)CCCC4)cc1)c1ccc(F)c(F)c1 [Compound 8, 3,4-Difluoro-N-[4-(6-oxo-5,6,7,8,9,10-hexahydrobenzo[c][1,8]naphthyridin-1-ylamino)-phenyl]-1-benzamide] | 1 to 10
O=C(Nc1ccc(Nc2ccnc3[nH]c(=O)c4c(c23)CCCC4)cc1)c1cc(F)cc(F)c1 [Compound 9, 3,5-Difluoro-N-[4-(6-oxo-5,6,7,8,9,10-hexahydrobenzo[c][1,8]naphthyridin-1-ylamino)-phenyl]-1-benzamide] | 1 to 10
O=C(Nc1ccc(Nc2ccnc3[nH]c(=O)c4c(c23)CCCC4)cc1)c1ccc(F)cc1 [Compound 10, 4-Fluoro-N-[4-(6-oxo-5,6,7,8,9,10-hexahydrobenzo[c][1,8]naphthyridin-1-ylamino)-phenyl]-1-benzamide] | 1 to 10
O=C(Nc1ccc(Nc2ccnc3[nH]c(=O)c4c(c23)CCCC4)cc1)c1cccc(C(F)(F)F)c1F [Compound 11, 2-Fluoro-N-[4-(6-oxo-5,6,7,8,9,10-hexahydrobenzo[c][1,8]naphthyridin-1-ylamino)-phenyl]-3-trifluoromethyl-benzamide] | 1 to 10
O=C(Nc1ccc(Nc2ccnc3[nH]c(=O)c4c(c23)CCCC4)cc1)c1c(Cl)cccc1Cl [Compound 13, 2,6-Dichloro-N-[4-(6-oxo-5,6,7,8,9,10-hexahydrobenzo[c][1,8]naphthyridin-1-ylamino)-phenyl]-1-benzamide] | 1 to 10
O=C(Nc1ccc(Nc2ccnc3[nH]c(=O)c4c(c23)CCNC4)cc1)c1ccc(F)cc1 [Compound 25, 4-Fluoro-N-[4-(9-oxo-5,6,7,8,9,10-hexahydro-1,7,10-triaza-phenanthren-4-ylamino)-phenyl]-benzamide] | 101 to 1000
O=C(Nc1ccc(Nc2ccnc3[nH]c(=O)c4c(c23)CCNC4)cc1)c1ccc(F)c(F)c1 [Compound 26, 3,4-Difluoro-N-[4-(9-oxo-5,6,7,8,9,10-hexahydro-1,7,10-triaza-phenanthren-4-ylamino)-phenyl]-benzamide] | 11 to 100
O=C(Nc1ccc(Nc2ccnc3[nH]c(=O)c4c(c23)CCNC4)cc1)c1ccccc1 [Compound 27, N-[4-(9-oxo-5,6,7,8,9,10-hexahydro-1,7,10-triaza-phenanthren-4-ylamino)-phenyl]-benzamide] | 101 to 1000
O=C(Nc1ccc(Nc2ccnc3[nH]c(=O)c4c(c23)CNCC4)cc1)c1ccccc1 [Compound 28, N-[4-(9-oxo-5,6,7,8,9,10-hexahydro-1,6,10-triaza-phenanthren-4-ylamino)-phenyl]-benzamide] | 101 to 1000
O=C(Nc1ccc(Nc2ccnc3[nH]c(=O)c4c(c23)CCN(Cc2ccccc2)C4)cc1)c1ccccc1 [Compound 29, N-[4-(7-Benzyl-9-oxo-5,6,7,8,9,10-hexahydro-1,7,10-triaza-phenanthren-4-ylamino)-phenyl]-benzamide] | 101 to 1000
O=C(Nc1ccc(Nc2ccnc3[nH]c(=O)c4n[nH]cc4c23)cc1)c1ccccc1 [Compound 33, N-(4-(4-oxo-4,5-dihydro-2H-pyrazolo[3,4-c][1,8]naphthyridin-9-ylamino)phenyl)benzamide] | 11 to 100
O=C(Nc1ccc(Nc2ccnc3[nH]c(=O)c4n[nH]cc4c23)cc1)c1ccc(F)cc1C(F)(F)F [Compound 34, 4-fluoro-N-(4-(4-oxo-4,5-dihydro-2H-pyrazolonaphthyridin-9-ylamino)phenyl)-2-(trifluoromethyl)benzamide] | 1 to 10
O=C(Nc1ccc(Nc2ccnc3[nH]c(=O)c4ccoc4c23)cc1)c1ccccc1 [Compound 36, N-[4-(4-oxo-4,5-dihydro-furo[3,2-c][1,8]naphthyridin-9-ylamino)-phenyl]-benzamide] | 11 to 100
O=c1[nH]c2nccc(Nc3ccccc3)c2c2occc12 [Compound 37, 9-Phenylamino-5H-furo[3,2-c][1,8]naphthyridin-4-one] | 101 to 1000
COc1ccc(Nc2ccnc3[nH]c(=O)c4ccoc4c23)cc1 [Compound 38, 9-(4-Methoxy-phenylamino)-5H-furo[3,2-c][1,8]naphthyridin-4-one] | 101 to 1000
O=c1[nH]c2nccc(Nc3ccc(Cl)cc3)c2c2occc12 [Compound 39, 9-(4-Chloro-phenylamino)-5H-furo[3,2-c][1,8]naphthyridin-4-one] | 101 to 1000
COc1cccc(Nc2ccnc3[nH]c(=O)c4ccoc4c23)c1 [Compound 40, 9-(3-Methoxy-phenylamino)-5H-furo[3,2-c][1,8]naphthyridin-4-one] | 101 to 1000
Nc1ccc(Oc2ccnc3[nH]c(=O)c4c(c23)CCCC4)cc1 [Compound 46, 1-(4-Amino-phenoxy)-7,8,9,10-tetrahydro-5H-benzo[c][1,8]naphthyridin-6-one] | 101 to 1000
O=C(Nc1ccc(Oc2ccnc3[nH]c(=O)c4c(c23)CCCC4)cc1)c1cccn(-c2ccc(F)cc2)c1=O [Compound 48, 1-(4-Fluoro-phenyl)-2-oxo-1,2-dihydro-pyridine-3-carboxylic acid [4-(6-oxo-5,6,7,8,9,10-hexahydro-benzo[c][1,8]naphthyridin-1-yloxy)-phenyl]-amide] | 101 to 1000
O=C(Nc1ccc(Nc2ccnc3[nH]c(=O)c4c(c23)CCCC4)c(F)c1)c1ccc(F)cc1C(F)(F)F [Compound 52, 4-Fluoro-N-[3-fluoro-4-(6-oxo-5,6,7,8,9,10-hexahydrobenzo[c][1,8]naphthyridin-1-ylamino)-phenyl]-2-trifluoromethyl-benzamide] | 1 to 10
O=C(Nc1ccc(Nc2ccnc3[nH]c(=O)c4c(c23)CCCC4)c(F)c1)c1cccc(F)c1 [Compound 53, 3-Fluoro-N-[3-fluoro-4-(6-oxo-5,6,7,8,9,10-hexahydrobenzo[c][1,8]naphthyridin-1-ylamino)-phenyl]-2-benzamide] | 1 to 10
O=C(Nc1ccc(Nc2ccnc3[nH]c(=O)c4c(c23)CCCC4)cc1F)c1ccc(F)cc1C(F)(F)F [Compound 54, 4-Fluoro-N-[2-fluoro-4-(6-oxo-5,6,7,8,9,10-hexahydrobenzo[c][1,8]naphthyridin-1-ylamino)-phenyl]-2-trifluoromethyl-benzamide] | 1 to 10
O=C(Nc1ccc(Nc2ccnc3[nH]c(=O)c4c(c23)CCCC4)c(F)c1)c1ccc(F)c(F)c1 [Compound 55, 3,4-Difluoro-N-[3-fluoro-4-(6-oxo-5,6,7,8,9,10-hexahydrobenzo[c][1,8]naphthyridin-1-ylamino)-phenyl]-1-benzamide] | 1 to 10
O=C(Nc1ccc(Nc2ccnc3[nH]c(=O)c4c(c23)CCCC4)c(F)c1)c1cccc(F)c1F [Compound 56, 2,3-Difluoro-N-[3-fluoro-4-(6-oxo-5,6,7,8,9,10-hexahydrobenzo[c][1,8]naphthyridin-1-ylamino)-phenyl]-1-benzamide] | 1 to 10

Same assay, conditions: read-out: Aurora A IC50

Structure (SMILES) | IC50 [nM]
O=C(Nc1ccc(Nc2ccnc3[nH]c(=O)c4c(c23)CCCC4)cc1)c1cc(Cl)cc(Cl)c1 [Compound 12, 3,5-Dichloro-N-[4-(6-oxo-5,6,7,8,9,10-hexahydrobenzo[c][1,8]naphthyridin-1-ylamino)-phenyl]-1-benzamide] | 11 to 100
O=C(Nc1ccc(Nc2ccnc3[nH]c(=O)c4c(c23)CCNC4)cc1)c1ccc(F)cc1C(F)(F)F [Compound 24, 4-Fluoro-N-[4-(9-oxo-5,6,7,8,9,10-hexahydro-1,7,10-triaza-phenanthren-4-ylamino)-phenyl]-2-trifluoromethyl-benzamide] | 11 to 100
O=c1[nH]c2nccc(Cl)c2c2cn(C(c3ccccc3)(c3ccccc3)c3ccccc3)nc12 [Compound 31, 9-Chloro-2-trityl-2H-pyrazolo[3,4-c][1,8]naphthyridin-4(5H)-one] | 101 to 1000
O=c1[nH]c2nccc(Oc3ccc4c(c3)OCCN4)c2c2c1CCCC2 [Compound 47, 1-(3,4-Dihydro-2H-benzo[1,4]oxazin-7-yloxy)-7,8,9,10-tetrahydro-5H-benzo[c][1,8]naphthyridin-6-one] | 101 to 1000
O=C(c1cccn(-c2ccc(F)cc2)c1=O)N1CCOc2cc(Oc3ccnc4[nH]c(=O)c5c(c34)CCCC5)ccc21 [Compound 49, 1-{4-[1-(4-Fluoro-phenyl)-2-oxo-1,2-dihydro-pyridine-3-carbonyl]-3,4-dihydro-2H-benzo[1,4]oxazin-7-yloxy}-7,8,9,10-tetrahydro-5H-benzo[c][1,8]naphthyridin-6-one] | 101 to 1000
Cc1cccc(-n2nc(C(C)(C)C)cc2NC(=O)Nc2ccc(Oc3ccnc4[nH]c(=O)c5c(c34)CCCC5)cc2)c1 [Compound 51, 1-(5-tert-Butyl-2-m-tolyl-2H-pyrazol-3-yl)-3-[4-(6-oxo-5,6,7,8,9,10-hexahydro-benzo[c][1,8]naphthyridin-1-yloxy)-phenyl]-urea] | 101 to 1000
